Measured values taken from patent US11564909B2, “Methods and compositions for oral pilocarpine liquid” (ROMEG Therapeutics LLC, priority 2020, dated 2023).

Tests used:
in vitro = conditions: human, Caco-2
Method: (§1) The objective of this study was to evaluate the bidirectional Caco-2 permeability of three formulations of test article Pilocarpine at three pH levels (pH 5.7, 6.5, 7.4) using calibration curve quantitation.
(§2) Samples were analyzed by LC/MS/MS using an Waters Xevo TQ mass spectrometer coupled with an Acuity HPLC and a CTC PAL chilled autosampler, all controlled by MassLynx software (Waters). After separation on a C18 reverse phase (Waters Acquity HSS T3 2.1×50 mm […]) using an acetonitrile-water gradient system, peaks were analyzed by mass spectrometry (MS) using ESI ionization in MRM mode.
(§3) Tables 16-17 show the HPLC gradients used and the experiment conditions of the Caco-2 permeability test, respectively.
(§4) Caco-2 cells grown in tissue culture flasks were trypsinized, suspended in medium, and the suspensions were applied to wells of a Millipore 96 well plate. The cells were allowed to grow and differentiate for three weeks, feeding at 2-day intervals.
(§5) For Apical to Basolateral (A→B) permeability, the test article was added to the apical (A) side and amount of permeation was determined on the basolateral (B) side; for Basolateral to Apical (B→A) permeability, the test article was added to the B side and the amount of permeation was determined on the A side. […] Caco-2 cells were incubated with test articles in these buffers for 2 hours, and at the end of the assay, donor and receiver side solution samples were collected, quenched by 100% methanol containing an internal standard and centrifuged at 5000 rpm for 10 minutes at 4° C. Following centrifugation, the supernatant for donor and receiver side samples were analyzed by LC-MS/MS.
(§6) Data is expressed as permeability (Papp):
(§7) [formula] dQ/dt is rate of permeation, C0 is initial concentration of test article, and A is the area of monolayer.
(§8) In bidirectional permeability studies, Efflux Ratio (Re) is also calculated:
(§9) [formula] Re>2 indicates a potential substrate for P-gp or other active efflux transporters. The donor, dosing and receiver side sample concentrations were calculated based on the calibration curve prepared in buffer matrix in the range of 1-20,000 nM.

Caco-2 cells = experiment: in vitro
Method: as §1, §2, §3, §4, §5, §6, §7, §8, §9

Row | Papp A→B at 2 h, 10 μM (in vitro) [nm/s] | Papp B→A at 2 h, 10 μM (in vitro) [nm/s] | efflux ratio at 2 h, 10 μM (in vitro) | Comments (permeability class) (Caco-2 cells) | BCS permeability classification (Caco-2 cells) | SMILES
1 | 194 | 427 | 2.22 | High permeability |  | COCCc1ccc(OCC(O)CNC(C)C)cc1 (stereo not drawn) [Metoprolol]
2 | 5.85 | 31.3 | 5.41 | Low permeability |  | CNC(=C[N+](=O)[O-])NCCSCc1ccc(CN(C)C)o1 [Ranitidine]
3 |  |  |  |  | high permeability | CC[C@@H]1C(=O)OC[C@@H]1Cc1cncn1C [pilocarpine, (3S,4R)-3-Ethyl-4-((1-methyl-1H-imidazol-5-yl)methyl)dihydrofuran-2(3H)-one]
